Test results as given in ChEMBL document CHEMBL1157712, “Hit to lead account of the discovery of bisbenzamide and related ureidobenzamide inhibitors of Rho kinase” (J Med Chem, 2010).
Converted amounts (≈) assume the structure as drawn. One block for each compound: values may come before it.

Columns and labels:
[1] = biological target: T1, Cytochrome P450 1A2 (Homo sapiens, UniProt P05177); test: Inhibition of human CYP1A2 by fluorescence assay; assay type: ADME
T1 sequence (P05177 whole entry): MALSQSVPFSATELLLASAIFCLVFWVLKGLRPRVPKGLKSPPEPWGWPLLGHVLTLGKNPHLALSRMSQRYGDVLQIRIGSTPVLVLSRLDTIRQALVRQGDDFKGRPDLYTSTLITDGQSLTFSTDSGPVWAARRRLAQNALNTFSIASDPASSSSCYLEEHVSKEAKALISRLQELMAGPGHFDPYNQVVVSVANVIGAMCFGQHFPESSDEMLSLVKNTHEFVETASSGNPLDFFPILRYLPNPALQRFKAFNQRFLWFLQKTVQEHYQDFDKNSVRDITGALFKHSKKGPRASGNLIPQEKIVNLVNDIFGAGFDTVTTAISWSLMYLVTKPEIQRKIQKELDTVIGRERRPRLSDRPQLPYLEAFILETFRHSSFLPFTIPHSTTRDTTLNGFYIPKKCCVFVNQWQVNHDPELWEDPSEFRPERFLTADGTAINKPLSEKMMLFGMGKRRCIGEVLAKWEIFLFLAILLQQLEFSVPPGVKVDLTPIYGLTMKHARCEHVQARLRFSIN

[2] = biological target: Serine/threonine-protein kinase MRCK beta (Homo sapiens) (UniProt Q9Y5S2); test: Inhibition of CDC42BPB
[3] = Permeability from basolateral to apical side in human Caco-2 cells; assay type: ADME, cell-based; conditions: read-out: permeability
[4] = Solubility at pH 7.4; assay type: physicochemical; conditions: buffer
[5] = biological target: T2, Cytochrome P450 2C9 (Homo sapiens, UniProt P11712); test: Inhibition of human CYP2C9 by fluorescence assay; assay type: ADME
[6] = biological target: T3, Rho-associated protein kinase 2 (Homo sapiens, UniProt O75116); test: Inhibition of human ROCK2 by IMAP assay
[7] = biological target: T4, Cytochrome P450 3A4 (Homo sapiens, UniProt P08684); test: Inhibition of human CYP3A4 using BQ substrate by fluorescence assay; assay type: ADME
[8] = biological target: T5, Protein kinase C epsilon type (Homo sapiens, UniProt Q02156); test: Inhibition of PKCepsilon
T5 sequence (Q02156 whole entry): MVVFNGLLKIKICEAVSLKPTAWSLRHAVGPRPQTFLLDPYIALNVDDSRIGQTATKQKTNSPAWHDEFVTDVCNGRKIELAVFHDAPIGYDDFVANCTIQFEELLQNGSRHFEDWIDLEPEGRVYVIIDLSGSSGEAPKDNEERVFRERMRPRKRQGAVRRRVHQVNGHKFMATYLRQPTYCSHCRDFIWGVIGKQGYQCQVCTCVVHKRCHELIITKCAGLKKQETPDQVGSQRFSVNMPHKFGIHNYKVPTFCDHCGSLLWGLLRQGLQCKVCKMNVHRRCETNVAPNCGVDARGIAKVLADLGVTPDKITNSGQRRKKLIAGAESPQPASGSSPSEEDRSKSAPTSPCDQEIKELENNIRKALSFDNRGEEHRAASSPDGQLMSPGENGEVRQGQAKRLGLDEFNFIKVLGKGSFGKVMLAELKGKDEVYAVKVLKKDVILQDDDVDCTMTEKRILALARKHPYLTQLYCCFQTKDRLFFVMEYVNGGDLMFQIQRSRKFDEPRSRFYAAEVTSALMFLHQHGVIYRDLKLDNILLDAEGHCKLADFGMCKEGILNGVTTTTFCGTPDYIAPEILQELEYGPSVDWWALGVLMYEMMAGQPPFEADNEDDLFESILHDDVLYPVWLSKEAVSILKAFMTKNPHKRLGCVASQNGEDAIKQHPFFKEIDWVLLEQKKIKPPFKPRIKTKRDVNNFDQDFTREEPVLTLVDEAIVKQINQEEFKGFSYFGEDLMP

[9] = biological target: Cytochrome P450 2C19 (Homo sapiens, UniProt P33261); test: Inhibition of human CYP2C19 by fluorescence assay; assay type: ADME
[10] = biological target: T4, Cytochrome P450 3A4; test: Inhibition of human CYP3A4 using BFC substrate by fluorescence assay; assay type: ADME
[11] = Metabolic stability in human liver microsomes assessed as half life; assay type: ADME, Microsome
[12] = biological target: Serine/threonine-protein kinase N2 (Homo sapiens, UniProt Q16513)
[13] = Permeability from apical to basolateral side in human Caco-2 cells; assay type: ADME, cell-based; conditions: Caco-2, read-out: permeability
[14] = biological target: T6, Cytochrome P450 2D6 (Homo sapiens, UniProt P10635); test: Inhibition of human CYP2D6 by fluorescence assay; assay type: ADME
[15] = biological target: T3, Rho-associated protein kinase 2
Description: (§1) Inhibition of human ROCK2 by homogenous luciferase assay

[16] = biological target: T3, Rho-associated protein kinase 2; remark: listed apart in the source
Description: as §1

[17] = biological target: T2, Cytochrome P450 2C9; test: Inhibition of human CYP2C9 by LCMS/MS assay; assay type: ADME
[18] = biological target: T4, Cytochrome P450 3A4; test: Inhibition of human CYP3A4 by LCMS/MS assay; assay type: ADME
[19] = Membrane permeability by PAMPA assay; assay type: ADME; conditions: read-out: permeability
[20] = biological target: T6, Cytochrome P450 2D6; test: Inhibition of human CYP2D6 by LCMS/MS assay; assay type: ADME
[21] = biological target: T1, Cytochrome P450 1A2; test: Inhibition of human CYP1A2 by LCMS/MS assay; assay type: ADME
[22] = test system: ROCK1 (Homo sapiens); test: Inhibition of ROCK1
[23] = organism: Rattus norvegicus; test: Induction of relaxation activity of phenylephrine-induced Sprague-Dawley rat aortic ring contraction; assay type: functional; conditions: Aorta

Chain of Serine/threonine-protein kinase MRCK beta (Homo sapiens) (Q9Y5S2 whole entry, looked up): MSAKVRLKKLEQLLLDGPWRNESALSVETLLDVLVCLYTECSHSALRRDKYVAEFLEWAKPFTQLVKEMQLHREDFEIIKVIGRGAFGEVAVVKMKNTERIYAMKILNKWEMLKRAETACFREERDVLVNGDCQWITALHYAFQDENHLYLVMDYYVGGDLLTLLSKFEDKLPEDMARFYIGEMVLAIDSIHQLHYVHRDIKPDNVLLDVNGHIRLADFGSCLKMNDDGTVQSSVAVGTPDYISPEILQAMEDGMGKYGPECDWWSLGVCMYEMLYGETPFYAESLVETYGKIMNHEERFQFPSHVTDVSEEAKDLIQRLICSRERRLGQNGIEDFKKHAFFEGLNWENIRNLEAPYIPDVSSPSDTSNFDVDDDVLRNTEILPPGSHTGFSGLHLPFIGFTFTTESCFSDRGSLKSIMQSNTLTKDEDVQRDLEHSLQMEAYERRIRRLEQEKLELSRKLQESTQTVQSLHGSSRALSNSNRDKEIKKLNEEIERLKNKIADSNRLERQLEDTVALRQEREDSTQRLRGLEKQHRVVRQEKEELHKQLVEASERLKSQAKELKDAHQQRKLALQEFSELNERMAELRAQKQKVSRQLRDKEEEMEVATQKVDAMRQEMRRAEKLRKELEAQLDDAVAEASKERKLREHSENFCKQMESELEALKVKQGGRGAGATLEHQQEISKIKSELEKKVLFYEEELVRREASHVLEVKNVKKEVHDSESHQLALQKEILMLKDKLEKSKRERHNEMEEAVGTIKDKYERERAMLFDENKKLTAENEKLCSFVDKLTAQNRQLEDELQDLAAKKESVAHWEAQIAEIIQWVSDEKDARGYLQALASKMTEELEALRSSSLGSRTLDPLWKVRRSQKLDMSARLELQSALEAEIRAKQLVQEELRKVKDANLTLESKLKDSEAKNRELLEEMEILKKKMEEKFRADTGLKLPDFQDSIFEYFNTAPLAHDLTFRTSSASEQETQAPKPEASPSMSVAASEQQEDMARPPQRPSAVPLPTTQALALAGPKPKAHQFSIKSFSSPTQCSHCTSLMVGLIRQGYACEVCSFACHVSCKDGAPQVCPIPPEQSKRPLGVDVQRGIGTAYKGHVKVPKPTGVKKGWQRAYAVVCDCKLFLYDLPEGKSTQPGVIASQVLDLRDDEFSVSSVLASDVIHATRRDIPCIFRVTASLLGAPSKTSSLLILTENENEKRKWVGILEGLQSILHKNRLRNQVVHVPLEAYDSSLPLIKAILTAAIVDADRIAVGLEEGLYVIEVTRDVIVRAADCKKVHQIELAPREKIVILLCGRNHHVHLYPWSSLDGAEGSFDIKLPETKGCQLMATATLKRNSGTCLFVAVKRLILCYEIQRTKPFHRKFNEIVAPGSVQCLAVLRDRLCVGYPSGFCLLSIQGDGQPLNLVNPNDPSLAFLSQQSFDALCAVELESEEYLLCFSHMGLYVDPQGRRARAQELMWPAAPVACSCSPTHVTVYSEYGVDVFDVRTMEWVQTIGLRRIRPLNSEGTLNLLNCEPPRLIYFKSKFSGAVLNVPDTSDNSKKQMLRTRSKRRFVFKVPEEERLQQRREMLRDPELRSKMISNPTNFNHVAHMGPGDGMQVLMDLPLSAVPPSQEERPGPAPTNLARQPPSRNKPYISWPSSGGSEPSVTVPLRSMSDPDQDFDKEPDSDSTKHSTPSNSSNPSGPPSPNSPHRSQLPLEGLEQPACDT
T2 sequence (P11712 whole entry): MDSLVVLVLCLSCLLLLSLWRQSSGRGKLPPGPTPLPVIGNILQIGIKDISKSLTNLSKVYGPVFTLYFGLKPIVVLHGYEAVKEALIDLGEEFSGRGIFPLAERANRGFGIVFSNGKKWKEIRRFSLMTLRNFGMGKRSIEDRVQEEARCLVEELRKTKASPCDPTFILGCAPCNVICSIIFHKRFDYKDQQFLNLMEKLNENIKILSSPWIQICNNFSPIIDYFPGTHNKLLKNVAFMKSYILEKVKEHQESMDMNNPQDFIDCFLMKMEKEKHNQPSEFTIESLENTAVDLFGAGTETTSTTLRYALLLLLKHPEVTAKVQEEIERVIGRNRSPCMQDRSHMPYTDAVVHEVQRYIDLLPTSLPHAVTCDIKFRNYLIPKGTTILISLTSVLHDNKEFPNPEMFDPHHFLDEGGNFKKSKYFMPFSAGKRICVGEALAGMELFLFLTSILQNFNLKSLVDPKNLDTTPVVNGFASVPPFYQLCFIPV
T6 sequence (P10635 whole entry): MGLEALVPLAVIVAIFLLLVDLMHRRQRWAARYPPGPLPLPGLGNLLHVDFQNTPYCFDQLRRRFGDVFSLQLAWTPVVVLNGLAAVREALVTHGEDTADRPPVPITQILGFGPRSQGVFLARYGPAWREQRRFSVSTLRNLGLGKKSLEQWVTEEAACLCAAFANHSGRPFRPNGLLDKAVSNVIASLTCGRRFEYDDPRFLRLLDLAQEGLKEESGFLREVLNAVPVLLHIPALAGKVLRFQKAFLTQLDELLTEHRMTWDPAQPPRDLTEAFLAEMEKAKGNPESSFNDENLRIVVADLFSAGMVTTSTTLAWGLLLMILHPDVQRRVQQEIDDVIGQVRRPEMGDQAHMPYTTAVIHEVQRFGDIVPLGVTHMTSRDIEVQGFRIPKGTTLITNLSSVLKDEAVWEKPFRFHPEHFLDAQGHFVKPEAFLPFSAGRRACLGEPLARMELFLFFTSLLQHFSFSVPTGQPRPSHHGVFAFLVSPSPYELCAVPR
Chain of Serine/threonine-protein kinase N2 (Q16513 whole entry): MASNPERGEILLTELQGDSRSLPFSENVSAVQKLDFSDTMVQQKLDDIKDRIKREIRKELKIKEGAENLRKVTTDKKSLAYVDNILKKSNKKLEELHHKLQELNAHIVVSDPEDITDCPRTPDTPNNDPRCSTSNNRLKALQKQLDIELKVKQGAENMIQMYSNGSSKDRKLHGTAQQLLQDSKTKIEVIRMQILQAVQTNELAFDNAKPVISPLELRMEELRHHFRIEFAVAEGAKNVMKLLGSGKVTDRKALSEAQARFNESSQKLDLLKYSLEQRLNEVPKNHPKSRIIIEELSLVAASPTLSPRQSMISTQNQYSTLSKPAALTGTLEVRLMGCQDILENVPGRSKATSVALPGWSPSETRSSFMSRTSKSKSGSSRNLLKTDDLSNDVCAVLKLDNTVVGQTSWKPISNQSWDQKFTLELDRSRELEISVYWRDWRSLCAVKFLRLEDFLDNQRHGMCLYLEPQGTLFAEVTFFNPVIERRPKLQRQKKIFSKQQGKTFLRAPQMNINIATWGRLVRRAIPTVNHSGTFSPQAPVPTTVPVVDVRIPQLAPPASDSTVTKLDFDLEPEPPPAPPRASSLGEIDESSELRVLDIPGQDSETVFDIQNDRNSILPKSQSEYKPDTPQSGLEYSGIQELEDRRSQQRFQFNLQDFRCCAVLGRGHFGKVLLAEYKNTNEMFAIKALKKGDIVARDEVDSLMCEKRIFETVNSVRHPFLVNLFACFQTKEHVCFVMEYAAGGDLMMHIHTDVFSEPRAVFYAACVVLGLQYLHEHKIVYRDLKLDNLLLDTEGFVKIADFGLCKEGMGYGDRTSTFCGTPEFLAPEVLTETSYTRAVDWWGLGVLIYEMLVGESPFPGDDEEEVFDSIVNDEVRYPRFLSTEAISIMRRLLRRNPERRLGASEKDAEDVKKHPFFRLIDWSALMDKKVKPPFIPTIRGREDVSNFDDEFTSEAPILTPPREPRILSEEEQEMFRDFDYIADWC
T4 sequence (P08684 whole entry): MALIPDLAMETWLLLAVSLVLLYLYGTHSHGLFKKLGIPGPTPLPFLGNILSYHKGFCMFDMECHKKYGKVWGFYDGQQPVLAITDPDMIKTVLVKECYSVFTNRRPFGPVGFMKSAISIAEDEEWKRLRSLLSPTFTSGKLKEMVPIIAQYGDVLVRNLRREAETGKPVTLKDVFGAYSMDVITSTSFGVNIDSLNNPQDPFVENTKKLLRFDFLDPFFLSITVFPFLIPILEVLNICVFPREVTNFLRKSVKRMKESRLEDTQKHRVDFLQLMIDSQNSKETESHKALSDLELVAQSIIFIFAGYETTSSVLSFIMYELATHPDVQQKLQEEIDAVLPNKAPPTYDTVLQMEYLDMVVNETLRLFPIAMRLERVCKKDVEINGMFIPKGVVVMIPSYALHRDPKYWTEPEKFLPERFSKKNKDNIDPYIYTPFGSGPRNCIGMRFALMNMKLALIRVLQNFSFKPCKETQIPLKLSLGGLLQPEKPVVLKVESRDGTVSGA
Chain of Cytochrome P450 2C19 (P33261 whole entry): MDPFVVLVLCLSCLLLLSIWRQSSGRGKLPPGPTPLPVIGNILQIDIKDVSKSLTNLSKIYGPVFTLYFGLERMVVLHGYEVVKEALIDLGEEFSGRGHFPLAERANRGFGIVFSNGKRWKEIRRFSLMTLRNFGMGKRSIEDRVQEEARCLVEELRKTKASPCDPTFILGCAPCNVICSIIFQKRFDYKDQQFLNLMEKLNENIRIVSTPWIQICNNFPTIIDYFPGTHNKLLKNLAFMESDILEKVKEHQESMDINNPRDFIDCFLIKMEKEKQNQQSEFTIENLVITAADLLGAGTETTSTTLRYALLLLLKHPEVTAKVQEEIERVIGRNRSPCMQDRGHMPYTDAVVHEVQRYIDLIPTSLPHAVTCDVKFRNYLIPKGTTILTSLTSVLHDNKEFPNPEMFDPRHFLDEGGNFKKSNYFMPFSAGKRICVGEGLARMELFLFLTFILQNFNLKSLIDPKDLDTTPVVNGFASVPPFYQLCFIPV

Compound: CN(C)Cc1ccc(NC(=O)c2cccc(CNC(=O)Nc3cccc(C(N)=O)c3)c2)cc1
IC50 [16]: 240 µM
IC50 [6]: 290 nM

Compound: CN(C)Cc1ccc(NC(=O)c2cccc(CNC(=O)Nc3ccc(C#N)c(Cl)c3)c2)cc1
IC50 [16]: 10 µM
IC50 [6]: 45 nM

Compound: COc1ccc(C(=O)NCc2cccc(C(=O)Nc3ccc(CN(C)C)cc3)c2)cc1
IC50 [6]: > 6500 nM

Compound: COc1ccc(C(=O)NCc2cccc(C(=O)NCCc3ccncc3)c2)cc1
IC50 [15]: > 7000 µM

Compound: COc1ccc(C(=O)NCc2cccc(C(=O)Nc3ccc(CN(C)C)cc3)c2)cc1C
Papp B→A [3]: 30.8 ×10⁻⁶ cm/s
solubility [4]: > 88 µg/mL
IC50 [6]: 660 nM
IC50 [17]: 12.5 µM
IC50 [18]: 13.5 µM
Papp [19]: 21 ×10⁻⁶ cm/s
Papp A→B [13]: 7.9 ×10⁻⁶ cm/s
IC50 [20]: > 30 µM
IC50 [21]: > 30 µM

Compound: CN(C)Cc1ccc(NC(=O)c2cccc(CNC(=O)c3ccc(OC(F)(F)F)c(Cl)c3)c2)cc1
IC50 [16]: 670 µM
IC50 [6]: 1300 nM

Compound: N#Cc1ccc(NC(=O)NCc2cccc(C(=O)Nc3ccc(CN)cc3)c2)cc1
IC50 [16]: 70 µM
IC50 [6]: 210 nM

Compound: CN(C)Cc1ccc(NC(=O)c2cccc(CNC(=O)c3ccc(O)c(O)c3)c2)cc1
IC50 [6]: > 6400 nM
IC50 [15]: > 6 µM

Compound: CN(C)Cc1ccc(NC(=O)c2cccc(CNC(=O)c3ccc(C#N)cc3)c2)cc1
IC50 [6]: > 6500 nM

Compound: O=S(=O)(c1cccc2cnccc12)N1CCCNCC1 [FASUDIL]
IC50 [23]: 6.1 µM

Compound: CN(C)Cc1ccc(NC(=O)c2cccc(CNC(=O)Nc3ccc(C#N)cc3)c2)cc1
IC50 [2]: > 5 µM
IC50 [6]: 160 nM
IC50 [8]: > 5 µM
IC50 [12]: > 5 µM
IC50 [15]: 0.065 µM

The next lines start with the values.

IC50 [1]: > 30 µM
IC50 [2]: > 5 µM
Papp B→A [3]: 0.8 ×10⁻⁶ cm/s
solubility [4]: 16 µg/mL (≈ 37.6 µM)
IC50 [5]: > 30 µM
IC50 [6]: 140 nM
IC50 [7]: > 30 µM
IC50 [8]: > 5 µM
IC50 [9]: > 30 µM
IC50 [10]: > 30 µM
half-life [11]: 139 min
IC50 [12]: 4.4 µM
Papp A→B [13]: 0.1 ×10⁻⁶ cm/s
IC50 [14]: > 30 µM
IC50 [15]: 0.053 µM
Compound: COc1ccc(C(=O)NCc2cccc(C(=O)NCCC3CCCNC3)c2)cc1OC (stereo not drawn)

IC50 [16]: 3200 µM
Compound: COc1ccc(CC(=O)Nc2cccc(C(=O)NCCC3CCCNC3)c2)cc1OC (stereo not drawn)

IC50 [15]: > 6000 µM
Compound: COc1ccc(S(=O)(=O)NCc2cccc(C(=O)NCCC3CCCNC3)c2)cc1OC (stereo not drawn)

Papp B→A [3]: 16.1 ×10⁻⁶ cm/s
solubility [4]: 48 µg/mL (≈ 114 µM)
IC50 [17]: > 30 µM
half-life [11]: 41 min
IC50 [18]: > 30 µM
Papp [19]: 10 ×10⁻⁶ cm/s
Papp A→B [13]: 0.6 ×10⁻⁶ cm/s
IC50 [20]: > 30 µM
IC50 [21]: > 30 µM
IC50 [15]: 0.87 µM
Compound: COc1ccc(C(=O)NCc2cccc(C(=O)Nc3ccc(CO)cc3)c2)cc1OC

IC50 [1]: > 30 µM
IC50 [2]: > 5 µM
Papp B→A [3]: 0.6 ×10⁻⁶ cm/s
solubility [4]: 67 µg/mL (≈ 157 µM)
IC50 [5]: > 30 µM
IC50 [7]: > 30 µM
IC50 [8]: > 5 µM
IC50 [9]: > 30 µM
IC50 [10]: > 30 µM
half-life [11]: 87 min
Papp [19]: 0.6 ×10⁻⁶ cm/s
IC50 [12]: > 5 µM
Papp A→B [13]: 0.1 ×10⁻⁶ cm/s
IC50 [14]: > 30 µM
Compound: COc1ccc(C(=O)NCc2cccc(C(=O)NCCC3CCNCC3)c2)cc1OC

IC50 [15]: 5 µM
Compound: CCCNC(=O)c1cccc(CNC(=O)c2ccc(OC)c(OC)c2)c1

IC50 [16]: 1600 µM
Compound: COc1ccc(NC(=O)NCc2cccc(C(=O)NCCC3CCCNC3)c2)cc1OC (stereo not drawn)

IC50 [16]: 102 µM
Compound: COc1ccc(C(=O)NCc2cccc(C(=O)NCCC3CCCN(C)C3)c2)cc1OC (stereo not drawn)

IC50 [16]: 110 µM
Compound: N#Cc1ccc(NC(=O)NCc2cccc(NC(=O)CCC3CCCNC3)c2)cc1 (stereo not drawn)

IC50 [2]: > 5 µM
IC50 [22]: 190 nM
IC50 [8]: > 5 µM
IC50 [12]: > 5 µM
IC50 [15]: 0.073 µM
Compound: COc1ccc(C(=O)NCc2cccc(NC(=O)CCC3CCCNC3)c2)cc1OC (stereo not drawn)
